The text below walks through data of patent US6803380B1, “5-aryl-1h-1,2,4-triazole compounds as inhibitors of cyclooxygenase-2 and pharmaceutical compositions containing them” (Laboratoire Theramex, priority 1999, dated 2004).

Read-outs that look alike come from different tables or passages of the source.

One series has as its target T1, COX-1 (Ovis aries, UniProt P05979).
T1 construct: Purified COX-1 from ram seminal vesicles; purchased Cayman Chemicals; host or cells: ram seminal vesicles (tissue-purified)
T1 sequence (P05979 25-600): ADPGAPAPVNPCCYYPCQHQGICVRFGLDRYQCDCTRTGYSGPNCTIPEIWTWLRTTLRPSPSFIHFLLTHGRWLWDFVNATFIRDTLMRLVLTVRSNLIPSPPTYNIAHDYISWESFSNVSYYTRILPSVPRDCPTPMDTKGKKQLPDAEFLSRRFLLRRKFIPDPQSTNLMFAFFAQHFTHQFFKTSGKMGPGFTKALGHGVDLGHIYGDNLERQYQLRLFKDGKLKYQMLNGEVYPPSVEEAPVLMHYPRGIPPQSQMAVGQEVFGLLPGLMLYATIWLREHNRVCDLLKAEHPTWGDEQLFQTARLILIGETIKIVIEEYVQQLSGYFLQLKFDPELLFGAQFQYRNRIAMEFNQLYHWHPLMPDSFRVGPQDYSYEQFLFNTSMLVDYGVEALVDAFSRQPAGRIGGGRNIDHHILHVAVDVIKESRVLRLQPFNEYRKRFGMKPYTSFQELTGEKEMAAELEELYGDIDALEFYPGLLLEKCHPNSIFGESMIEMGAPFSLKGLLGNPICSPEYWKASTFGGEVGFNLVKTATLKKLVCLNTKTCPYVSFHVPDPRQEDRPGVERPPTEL
The series is described as follows: Inhibition of purified COX-1 activity in vitro (PGE2 by enzymo-immunoassay). As to conditions: for % COX-1 inhibition: negative sign = inhibition. Type of series: biochemical, ram. As for the experimental part: (§1) Example compounds according to the invention were tested for their ability to inhibit COX-1 and/or COX-2 activities in vitro. Purified COX-1 from ram seminal vesicles and purified COX-2 from ewe placenta (both from Cayman Chemicals) were incubated for 10 minutes at 25° C. in the presence of their substrate, arachidonic acid (5 μM), with or without test compounds or standard inhibitors. Prostaglandin E2, the reaction product, was measured by enzymo-immunoassay (R&D Systems). Each individual value results from duplicate determinations. Final inhibition data are means±standard errors of at least (3) independent experiments performed on as many different days.

A further series addresses T2, COX-2 (Ovis aries, UniProt P79208).
T2 construct: purified COX-2 from ewe placenta; purchased Cayman Chemicals; host or cells: ewe placenta (tissue-purified)
T2 sequence (P79208 17-603): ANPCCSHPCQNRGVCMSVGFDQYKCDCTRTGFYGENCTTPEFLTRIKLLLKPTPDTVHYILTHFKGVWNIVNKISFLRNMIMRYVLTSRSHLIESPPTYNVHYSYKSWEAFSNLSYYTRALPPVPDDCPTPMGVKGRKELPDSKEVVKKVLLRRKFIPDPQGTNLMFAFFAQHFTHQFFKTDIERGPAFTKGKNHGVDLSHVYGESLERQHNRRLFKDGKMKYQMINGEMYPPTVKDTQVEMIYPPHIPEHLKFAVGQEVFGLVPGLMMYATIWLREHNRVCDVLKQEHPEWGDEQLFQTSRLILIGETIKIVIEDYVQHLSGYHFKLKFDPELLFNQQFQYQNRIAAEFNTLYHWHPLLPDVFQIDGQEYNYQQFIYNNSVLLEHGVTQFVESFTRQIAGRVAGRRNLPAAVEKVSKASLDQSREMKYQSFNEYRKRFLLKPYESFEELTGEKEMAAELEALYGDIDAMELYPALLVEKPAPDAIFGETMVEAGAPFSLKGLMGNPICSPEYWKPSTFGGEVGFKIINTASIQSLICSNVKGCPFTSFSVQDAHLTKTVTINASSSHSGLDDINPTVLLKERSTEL
As to the kind of experiment: Inhibition of purified COX-2 activity in vitro (PGE2 by enzymo-immunoassay). Format: biochemical, ewe. The procedure:
as §1

The mark [1] stands for this setting: concentration 1 μM, read-out: % COX-2 inhibition.

Take `COc1ccc(-n2nc(C(F)(F)F)nc2-c2ccc(S(C)(=O)=O)cc2)cc1OC` [Example 27, 1-(3,4-dimethoxy-phenyl)-5-(4-methylsulfonyl-phenyl)-3-trifluoromethyl-1H-1,2,4-triazole]: the melting point was 140 °C.
`Cc1nc(-c2ccc(S(C)(=O)=O)cc2)n(-c2cccc(Cl)c2)n1` [Example 7, 1-(3-chloro-phenyl)-3-methyl-5-(4-methylsulfonyl-phenyl)-1H-1,2,4-triazole] yielded a melting point of 130 °C.
In the case of `COc1ccc(-n2nc(C(F)(F)F)nc2-c2ccc(S(C)(=O)=O)cc2)cc1F` [Example 33, 1-(3-fluoro-4-methoxy-phenyl)-5-(4-methylsulfonyl-phenyl)-3-trifluoromethyl-1H-1,2,4-triazole], the melting point worked out at 180 °C.
The molecule `Cc1nc(-c2ccc(S(C)(=O)=O)cc2)n(-c2ccc(F)cc2F)n1` [Example 11, 1-(2,4-difluoro-phenyl)-3-methyl-5-(4-methylsulfonyl-phenyl)-1H-1,2,4-triazole] came in with a melting point of 160 °C.
`CS(=O)(=O)c1ccc(-c2nc(C(F)(F)F)nn2C2CCCCC2)cc1` [Example 22, 1-(cyclohexyl)-5-(4-methylsulfonyl-phenyl)-3-trifluoromethyl-1H-1,2,4-triazole] yielded a melting point of 136 °C.
The molecule `Cc1nc(-c2ccc(S(C)(=O)=O)cc2)n(-c2ccccc2)n1` [Example 5, 3-methyl-5-(4-methylsulfonyl-phenyl)-1-phenyl-1H-1,2,4-triazole] had a melting point of 146 °C.
Molecule `Cc1nc(-c2ccc(S(C)(=O)=O)cc2)n(-c2ccc(Br)cc2)n1` [Example 9, 1-(4-bromo-phenyl)-3-methyl-5-(4-methylsulfonyl-phenyl)-1H-1,2,4-triazole] showed a melting point of 188 °C.
The same measure, in the same setting: with `Cc1nc(-c2ccc(S(C)(=O)=O)cc2)n(-c2ccccc2Cl)n1` [Example 6, 1-(2-chloro-phenyl)-3-methyl-5-(4-methylsulfonyl-phenyl)-1H-1,2,4-triazole] the figure was 170 °C; with `CS(=O)(=O)c1ccc(-c2nc(C(F)(F)F)nn2-c2ccc3c(c2)OCO3)cc1` [Example 28, 1-(3,4-methylenedioxy-phenyl)-5-(4-methylsulfonyl-phenyl)-3-trifluoromethyl-1H-1,2,4-triazole], 185 °C.
The same measure, in the same setting: with `CS(=O)(=O)c1ccc(-c2nc(C(F)(F)F)nn2-c2ccc(Cl)cc2)cc1` [Example 21, 1-(4-chloro-phenyl)-5-(4-methylsulfonyl-phenyl)-3-trifluoromethyl-1H-1,2,4-triazole] the figure was 190 to 192 °C.
`Cc1nc(-c2ccc(S(C)(=O)=O)cc2)n(-c2ccc(N(C)C)cc2)n1` [Example 15, 1-(4-dimethylamino-phenyl)-3-methyl-5-(4-methylsulfonyl-phenyl)-1H-1,2,4-triazole]: the melting point is 200 °C. Further, at COX-1 (concentration 1 μM), the “inhibition of COX-1 (in words)” value is listed as “did not show any significant inhibition of COX-1” and the “% COX-1 inhibition” value is reported as “+2 ± 7.0%”. For the same molecule, the “selective inhibition of COX-2 (in words)” value on COX-2 (concentration 1 μM) is listed as “able to inhibit COX-2 selectively”. Also, the inhibition at 1 µM at COX-2 (setting [1]) is 18 ± 7%.
Consider `COc1ccc(-n2nc(C(F)(F)F)nc2-c2ccc(S(N)(=O)=O)cc2)cc1` [Example 34, 1-(4-methoxy-phenyl)-5-(4-aminosulfonyl-phenyl)-3-trifluoromethyl-1H-1,2,4-triazole], for which, on COX-1 (concentration 1 μM), the “inhibition of COX-1 (in words)” value was “did not show any significant inhibition of COX-1” and the “% COX-1 inhibition” value was −16 ± 10%. The “selective inhibition of COX-2 (in words)” value at COX-2 (concentration 1 μM) was “able to inhibit COX-2 selectively”. At COX-2 (setting [1]), the inhibition at 1 µM stood at 78 ± 2%. The “COX-2 inhibitory potency compared with nimesulide (in words)” value at COX-2 (same concentration, 1 μM) is “even more potent”.
The molecule `CS(=O)(=O)Nc1ccc(-n2nc(C(F)(F)F)nc2-c2ccc(S(C)(=O)=O)cc2)cc1` [Example 25, 1-(4-methylsulfonylamino-phenyl)-5-(4-methylsulfonyl-phenyl)-3-trifluoromethyl-1H-1,2,4-triazole] had a melting point of 188 °C. Moreover, at COX-1 (concentration 1 μM), the “inhibition of COX-1 (in words)” value is reported as “did not show any significant inhibition of COX-1” and the “% COX-1 inhibition” value is −5 ± 9%. At COX-2 (concentration 1 μM), the “selective inhibition of COX-2 (in words)” value is on record as “able to inhibit COX-2 selectively”. In addition, the inhibition at 1 µM on COX-2 (setting [1]) worked out at 31 ± 10%.
In turn, `COc1ccc(-n2nc(C(F)(F)F)nc2-c2ccc(S(C)(=O)=O)cc2Cl)cc1` [Example 24, 5-(2-chloro-4-methylsulfonyl-phenyl)-1-(4-methoxy-phenyl)-3-trifluoromethyl-1H-1,2,4-triazole] came in with a melting point of 148 °C.
The molecule `Cc1nc(-c2ccc(S(C)(=O)=O)cc2)n(-c2ccc(Cl)cc2)n1` [Example 3, 1-(4-chloro-phenyl)-3-methyl-5-(4-methylsulfonyl-phenyl)-1H-1,2,4-triazole] returned a melting point of 186 °C. In addition, on COX-1 (concentration 1 μM), the “inhibition of COX-1 (in words)” value is given as “did not show any significant inhibition of COX-1” and the “% COX-1 inhibition” value is −2 ± 5.7%. Besides, at COX-2 (concentration 1 μM), the “selective inhibition of COX-2 (in words)” value is recorded as “able to inhibit COX-2 selectively”. In addition, the inhibition at 1 µM at COX-2 (setting [1]) came to 19 ± 2.6%.
`COc1ccc(-n2nc(C)nc2-c2ccc(S(C)(=O)=O)cc2)cc1OC` [Example 14, 1-(3,4-dimethoxy-phenyl)-3-methyl-5-(4-methylsulfonyl-phenyl)-1H-1,2,4-triazole] displayed a melting point of 186 °C.
The same measure, in the same setting: with `CS(=O)(=O)c1ccc(-c2nc(C(F)(F)F)nn2-c2ccc(S(C)(=O)=O)cc2)cc1` [Example 26, 1,5-di-(4-methylsulfonyl-phenyl)-3-trifluoromethyl-1H-1,2,4-triazole] the figure was 214 °C.
For `Cc1nc(-c2ccc(S(C)(=O)=O)cc2)n(-c2ccc(F)c(F)c2)n1` [Example 13, 1-(3,4-difluoro-phenyl)-3-methyl-5-(4-methylsulfonyl-phenyl)-1H-1,2,4-triazole], the melting point amounted to 194 °C.
Still for that read-out and setting: with `Cc1nc(-c2ccc(S(C)(=O)=O)cc2)n(-c2ccc([N+](=O)[O-])cc2)n1` [Example 12, 3-methyl-5-(4-methylsulfonyl-phenyl)-1-(4-nitro-phenyl)-1H-1,2,4-triazole] the figure was 180 °C.
Still for that read-out and setting: with `COc1ccc(Cn2nc(C(F)(F)F)nc2-c2ccc(S(C)(=O)=O)cc2)cc1OC` [Example 23, 1-(3,4-dimethoxy-phenyl-methyl)-5-(4-methylsulfonyl-phenyl)-3-trifluoromethyl-1H-1,2,4-triazole] the figure was 142 °C; with `Cc1ccc(-n2nc(C)nc2-c2ccc(S(C)(=O)=O)cc2)cc1` [Example 4, 3-methyl-1-(4-methyl-phenyl)-5-(4-methylsulfonyl-phenyl)-1H-1,2,4-triazole], 176 °C.
`CS(=O)(=O)c1ccc(-c2nc(C(F)(F)F)nn2-c2cccnc2)cc1.Cl` showed a melting point of 180 °C.
With `CS(=O)(=O)c1ccc(-c2nc(C(F)(F)F)nn2-c2ccc(F)cc2)cc1` [Example 20, 1-(4-fluoro-phenyl)-5-(4-methylsulfonyl-phenyl)-3-trifluoromethyl-1H-1,2,4-triazole], the melting point lay within 230 to 232 °C.
Turning to `Cc1nc(-c2ccc(S(C)(=O)=O)cc2)n(-c2ccc(F)cc2)n1` [Example 2, 1-(4-fluoro-phenyl)-3-methyl-5-(4-methylsulfonyl-phenyl)-1H-1,2,4-triazole], the melting point was 180 °C.
With `CS(=O)(=O)Nc1ccc([N+](=O)[O-])cc1Oc1ccccc1` [Nimesulide, reference compound], the “% COX-1 inhibition” value at COX-1 (concentration 0.1 μM) was “+7 ± 6.6%”. In addition, at COX-1 (concentration 1 μM), the “% COX-1 inhibition” value is “+16 ± 12.2%”. Further, on COX-1 (concentration 10 μM), the “% COX-1 inhibition” value is listed as “+13 ± 8.3%”. In addition, at COX-2 (read-out: % COX-2 inhibition), the inhibition at 0.1 µM stood at 23 ± 5.4%, the inhibition at 1 µM was 30 ± 3.2% and the inhibition at 10 µM came to 50%.

As usually defined, the melting point is the temperature, or range, at which the solid turns liquid. Usually inhibition stands for the change of the read-out against control, counted positive when it falls.
